Columns and labels:
Tribolium castaneum [1] = assay: Repellent activity against Tribolium castaneum (red flour beetle) assessed as induction of repellency measured 2 hr post compound exposure at 0.0002 uL/cm2 using 15% compound formulation; format: functional
Tribolium castaneum [2] = assay: Repellent activity against Tribolium castaneum (red flour beetle) assessed as induction of repellency measured 4 hr post compound exposure at 0.2 uL/cm2 using 15% compound formulation; format: functional
Tribolium castaneum [3] = assay: Repellent activity against Tribolium castaneum (red flour beetle) assessed as induction of repellency measured 4 hr post compound exposure at 0.00002 uL/cm2 using 15% compound formulation; format: functional
Tribolium castaneum [4] = assay: Repellent activity against Tribolium castaneum (red flour beetle) assessed as induction of repellency measured 2 hr post compound exposure at 0.002 uL/cm2 using 15% compound formulation; format: functional
Tribolium castaneum [5] = assay: Repellent activity against Tribolium castaneum (red flour beetle) assessed as induction of repellency measured 4 hr post compound exposure at 0.0002 uL/cm2 using 15% compound formulation; format: functional
Tribolium castaneum [6] = assay: Repellent activity against Tribolium castaneum (red flour beetle) assessed as induction of repellency measured 2 hr post compound exposure at 0.00002 uL/cm2 using 15% compound formulation; format: functional
Tribolium castaneum [7] = assay: Repellent activity against Tribolium castaneum (red flour beetle) assessed as induction of repellency measured 2 hr post compound exposure at 0.02 uL/cm2 using 15% compound formulation; format: functional
Tribolium castaneum [8] = assay: Repellent activity against Tribolium castaneum (red flour beetle) assessed as induction of repellency measured 4 hr post compound exposure at 0.02 uL/cm2 using 15% compound formulation; format: functional
Tribolium castaneum [9] = assay: Repellent activity against Tribolium castaneum (red flour beetle) assessed as induction of repellency measured 2 hr post compound exposure at 0.2 uL/cm2 using 15% compound formulation; format: functional
Tribolium castaneum [10] = assay: Repellent activity against Tribolium castaneum (red flour beetle) assessed as induction of repellency measured 4 hr post compound exposure at 0.002 uL/cm2 using 15% compound formulation; format: functional
[11] = Lipophilicity, logP of the compound; format: physicochemical; details: octanol/water

Structure (SMILES) | Repellency (Tribolium castaneum [1]) | Repellency (Tribolium castaneum [2]) | Repellency (Tribolium castaneum [3]) | Repellency (Tribolium castaneum [4]) | Repellency (Tribolium castaneum [5]) | Repellency (Tribolium castaneum [6]) | Repellency (Tribolium castaneum [7]) | Repellency (Tribolium castaneum [8]) | Repellency (Tribolium castaneum [9]) | Repellency (Tribolium castaneum [10]) | logP [11]
CC(=O)OC/C=C(\C)CCC=C(C)C [GERANYL ACETATE] | 21% | 94% | 8% | 21% | 23% | 5% | 60% | 63% | 95% | 24% | –
Cc1ccc(C(C)C)cc1O [CARVACROL] | 9% | 90% | 5% | -3% | 8% | 8% | 46% | 48% | 86% | -6% | –
C=CC(=C)CCC=C(C)C [MYRCENE] | 33% | 93% | 25% | 56% | 30% | 28% | 61% | 71% | 85% | 65% | –
C=C(C)[C@H]1CC=C(C)C(=O)C1 [(S)(+)CARVONE] | 45% | 94% | -10% | 53% | 21% | -10% | 91% | 85% | 96% | 30% | 3.07
C=C(C)[C@@H]1CC=C(C)C(=O)C1 [L-CARVONE] | 35% | 95% | 19% | 55% | 44% | 21% | 84% | 74% | 100% | 68% | –
CC(C)=CCC/C(C)=C\CO [NEROL] | 39% | 95% | 8% | 64% | 30% | 8% | 84% | 75% | 98% | 60% | 3.47
O=C(OCc1ccccc1)c1ccccc1O [BENZYL SALICYLATE] | 29% | 99% | -34% | 65% | 25% | -29% | 74% | 78% | 94% | 46% | –
Cc1ccc(C(C)C)cc1 [P-CYMENE] | -10% | 69% | -5% | 43% | -8% | -6% | 61% | 45% | 74% | 44% | –
CC(C)=CCC/C(C)=C/C=O [CITRAL] | 64% | 98% | 21% | 66% | 51% | 18% | 89% | 79% | 98% | 55% | –
CC(C)=CCC/C(C)=C/CO [GERANIOL] | 43% | 95% | 4% | 64% | 35% | 6% | 75% | 74% | 98% | 58% | –
CC(C)=CCCC(C)CCO (configuration not stated) [CITRONELLOL] | 45% | 96% | 40% | 59% | 43% | 30% | 74% | 85% | 96% | 60% | –
O=C(OCc1ccccc1)c1ccccc1 [BENZYL BENZOATE] | 14% | 91% | 6% | 16% | 18% | 3% | 44% | 44% | 93% | 23% | –
CCCCN(CCC(=O)OCC)C(C)=O | 16% | 75% | -6% | 54% | 4% | 2% | 60% | 50% | 78% | 40% | –

— ChEMBL document CHEMBL3045571, “Repellent activity of essential oils and some of their individual constituents against Tribolium castaneum herbst” (J Agric Food Chem, 2011)
